Measurements published in US20250145715A1, “B7-H3 TARGETING FUSION PROTEINS AND METHODS OF USE THEREOF” (GT Biopharma, Inc., priority 2021, published 2025).

How the values were obtained:
PC-3 cells = test: PC3 standard IncuCyte real-time killing assay; type: cell-based, human; conditions: IncuCyte platform
Protocol: FIG. 16 is a graph illustrating a PC3 standard IncuCyte Assay.
Tumor killing was evaluated in real-time using the IncuCyte platform. […] Caspase-3/7 green dye (Sartorious, Ann Arbor, MI, USA) was added to pick up dying cells that have not yet lost NuclightRed fluorescence. Noted treatments were then added at a 30 nM concentration, and the plate was placed in an IncuCyte ZOOM® platform housed inside a cell incubator at 37° C./5% C02. Images from three technical replicates were taken every 15 min for 48 h using a 4× objective lens and then analyzed using IncuCyte™ Basic Software v2018A (Sartorious). Graphed readouts represent percentage live OVCAR8 targets (NuclightRed+Caspase-3/7−), normalized to live targets alone at the starting (0 h) time point.

[1] = system: NK cells (CD45+CD56+CD3−) in PBMCs, with or without OVCAR8; test: Mass cytometry (CyTOF) of TriKE activated NK cells; type: cell-based, human
Protocol: FIG. 31 illustrates high dimensional analysis of cam1615B7-H3 activated NK cells. Concatenated analysis of three donors PBMCs incubated alone, with 30 nM cam1615B7-H3 TriKE, with OVCAR8 tumor (2:1 E:T), or with 30 nM cam1615B7-H3 TriKE and OVCAR8 tumor. Data was visualized in viSNE (Cytobank) and gated on CD45+CD56+CD3-cells.
For mass cytometry (CyTOF) studies, PBMCs were incubated alone or with OVCAR8s at a 2:1 ratio+/−cam1615B7-H3 (30 nM) for 24 h. After harvesting samples, cells were counted, and viability was measured using trypan blue exclusion. Two hundred thousand cells from each donor were aliquoted into 5-mL polystyrene U-bottom tubes for barcoding and CyTOF staining. Cells were stained with Cisplatin (Fluidigm Product #201064, San Francisco, CA, USA), followed by barcoding using the Cell-ID 20-Plex Pd Barcoding Kit (Fluidigm Product #201060). After barcoding, all cells were combined into a single 5-mL polystyrene U-bottom tube and incubated in the surface marker antibody cocktail for 30 min at 4° C.
Following surface staining, cells were then fixed using 2% PFA. For intracellular staining, cells were permeabilized by incubation with Triton X 0.1% for 5 min at room temperature, followed by incubation with intracellular antibody cocktail for 30 min at 4° C. Stained cells were then incubated overnight with Cell-ID Intercalator (Fluidigm Product #201192A). The following morning cells were washed and run on the CyTOF 2 instrument. Wash steps were completed using either Maxpar PBS (Fluidigm Product #201058), Maxpar Cell Staining Buffer (Fluidigm Product #201068), or Millipure Water at 1600 RPM for 4 min. For custom tagged antibodies: Conjugation of heavy metals to a specific ScFv is conducted using the Maxpar antibody labeling kit (Fluidigm). The protocol involves partial antibody reduction using 0.5 M TCEP: Pierce Bond-Breaker TCEP Solution (Thermo Scientific Product #77720, Waltham, MA, USA), as well as comprehensive buffer exchange using centrifugal filter units of both 3 kDa and 50 kDa size (Millipore Product #UFC500396, UFC505096, Burlington, MA, USA). After conjugation of the antibody, yield is measured, and the final reagent is stored in antibody stabilizer (Boca Scientific Product #131 000, Westwood, MA, USA). The reagent is then titrated and verified against known flow cytometry antibodies. Data from the three donors was concatenated. FCS file concatenation was completed with a combination of Cytobank and Flowjo. All Visne analyses were carried out in Cytobank.
As illustrated in FIG. 31 high dimensional analysis of cam1615B7-H3 TriKE activated cells was performed. To broadly evaluate the phenotypic and functional effects of TriKE activation on NK cells, a custom, 42 parameter, CyTOF (mass cytometry) NK cell targeted panel was used. PBMCs were left untreated, incubated with cam1615B7-H3 TriKE for 24 h, incubated with tumor (OVCAR8s) for 24 h, or incubated with tumor and cam1615B7-H3 TriKE for 24 h. Cells were then stained, fixed, and run on a CyTOF2. Samples (three biologic replicates per condition) were concatenated, and data was visualized with viSNE, which uses all expression information to display localization of individual cells in a 2D plot in order to explore the multidimensional data (FIG. 31). The data indicated no changes in distributions of CD56^brights versus CD56^dims. Activation markers CD25 and CD69 were both induced with TriKE treatment, as was the chemokine receptor CXCR3. Granzyme B, involved in cytolytic activity of NK cells, was primed on effectors+TriKE, but in the presence of tumor targets (effectors+tumor+TriKE) these Granzyme B high cells disappeared, likely as a cause of ADCC driven specific degranulation. […] This also seemed to be the case with NKG2D, but the natural cytotoxicity receptors (NCR: NKp30, NKp44, and NKp46) were less affected.

[2] = effectors exposed to tumor in the presence of TriKE

## B7-H3 TriKE: camelid nanobodies targeting CD16 and B7-H3 joined by IL-15 and two linkers; sequence table equates the name with cam1615B7-H3
PC-3 cells
  real-time tumor killing of PC-3 cells: enhanced efficacy

## cam1615B7-H3: second-generation TriKE: humanized camelid anti-CD16 VHH, human wild-type IL-15, anti-B7-H3 mAb 376.96 scFv; SEQ ID NO:1
[1]; 30 nM, 24 h
  distributions of CD56brights versus CD56dims: no changes
[1]; 30 nM, 24 h, TriKE treatment
  CD25 expression: induced
  CD69 expression: induced
  CXCR3 expression: induced
[1]; [2]
  TIGIT: did not seem as affected
  activating KIR (KIR2DS1 and KIR2DS4) expression: reduced in expression
  inhibitory KIR (KIR2DL1, KIR2DL3 and KIR3DL1) expression: reduced in expression
  natural cytotoxicity receptors (NKp30, NKp44, NKp46): less affected
[1]; effectors+TriKE
  Granzyme B: primed
[1]; effectors+tumor+TriKE
  Granzyme B high cells: disappeared
